Results on 12 compounds are retold here after patent publication US10221173B2, “Chemical compounds” (AstraZeneca AB, priority 2017, dated 2019).

In brackets after ≈: the same amount, converted by molar mass.

Data set [1] has as its target Estrogen Receptor (ERα) in MCF-7 cells (Homo sapiens (Human), UniProt P03372). The data set can be described thus: MCF-7 ER down-regulation assay (immuno-fluorescence). It counts as cell-based.
Procedure: The ability of compounds to down-regulate Estrogen Receptor (ER) numbers was assessed in a cell based immuno-fluorescence assay using the MCF-7 human ductal carcinoma breast cell line. MCF-7 cells were revived directly from a cryovial (approx 5×10^6 cells) in Assay Medium (phenol red free Dulbecco's Modified Eagle's medium (DMEM); Sigma D5921) containing 2 mM L-Glutamine and 5% (v/v) Charcoal/Dextran treated foetal calf serum. Cells were syringed once using a sterile 18G×1.5 inch (1.2×40 mm) broad gauge needle and cell density was measured using a Coulter Counter (Beckman). […] Following cell seeding, plates were incubated overnight at 37° C., 5% CO2 (Liconic carousel incubator). Test data was generated using the LabCyte Echomodel 555 compound reformatter which is part of an automated workcell (Integrated Echo 2 workcell). Compound stock solutions (10 mM) of the test compounds were used to generate a 384 well compound dosing plate (Labcyte P-05525-CV1). […] 40 μL of DMSO added to wells in row P on the source plate allowed for DMSO normalisation across the dose range. To dose the control wells 40 μL of DMSO was added to row O1 and 40 μL of 100 μM fulvestrant in DMSO was added to row O3 on the compound source plate.
The Echo uses acoustic technology to perform direct microplate-to-microplate transfers of DMSO compound solutions to assay plates. The system can be programmed to transfer volumes as low as 2.5 nL in multiple increments between microplates and in so doing generates a serial dilution of compound in the assay plate which is then back-filled to normalise the DMSO concentration across the dilution range. […] The fixing method described above was carried out on the Integrated Echo 2 workcell. Immunostaining was performed using an automated AutoElisa workcell. The PBS/Proclin was aspirated from all wells and the cells permeabilised with 40 μL PBS containing 0.5% Tween™ 20 (v/v) for 1 hour at room temperature. The plates were washed three times in 250 μL of PBS/0.05% (v/v) Tween 20 with Proclin (PBST with a Biocide preservative) and then 20 μL of ERα (SP1) Rabbit monoclonal antibody (Thermofisher) 1:1000 in PBS/Tween™/3% (w/v) Bovine Serum Albumin was added. The plates were incubated overnight at 4° C. (Liconic carousel incubator) and then washed three times in 250 μL of PBS/0.05% (v/v) Tween™ 20 with Proclin (PBST). The plates were then incubated with 20 μL/well of a goat anti-rabbit IgG AlexaFluor 594 or goat anti-rabbit AlexaFluor 488 antibody (Molecular Probes) with Hoechst at 1:5000 in PBS/Tween™/3% (w/v) Bovine Serum Albumin for 1 hour at room temperature. The plates were then washed three times in 250 μL of PBS/0.05% (v/v) Tween™ 20 with Proclin (PBST with a Biocide preservative). 20 μL of PBS was added to each well and the plates covered with a black plate seal and stored at 4° C. before being read. […] The mean total intensity was normalized for cell number giving the total intensity per cell. The data was exported into a suitable software package (such as Origin) to perform curve fitting analysis.
Data set [2] is described as follows: Log D (shake flask, 1-octanol/aqueous buffer). The note with it: for logD: 1-octanol/aqueous buffer, pH 7.4, pH 7.4. It counts as physicochemical.
The nature of data set [3]: Thermodynamic solubility (shake-flask). It counts as physicochemical. The note with it: phosphate buffer pH 7.4, 24 hours.
The target in data set [4] is hERG potassium channel (Homo sapiens (Human), UniProt Q12809).
hERG potassium channel, sequence (Q12809 whole entry): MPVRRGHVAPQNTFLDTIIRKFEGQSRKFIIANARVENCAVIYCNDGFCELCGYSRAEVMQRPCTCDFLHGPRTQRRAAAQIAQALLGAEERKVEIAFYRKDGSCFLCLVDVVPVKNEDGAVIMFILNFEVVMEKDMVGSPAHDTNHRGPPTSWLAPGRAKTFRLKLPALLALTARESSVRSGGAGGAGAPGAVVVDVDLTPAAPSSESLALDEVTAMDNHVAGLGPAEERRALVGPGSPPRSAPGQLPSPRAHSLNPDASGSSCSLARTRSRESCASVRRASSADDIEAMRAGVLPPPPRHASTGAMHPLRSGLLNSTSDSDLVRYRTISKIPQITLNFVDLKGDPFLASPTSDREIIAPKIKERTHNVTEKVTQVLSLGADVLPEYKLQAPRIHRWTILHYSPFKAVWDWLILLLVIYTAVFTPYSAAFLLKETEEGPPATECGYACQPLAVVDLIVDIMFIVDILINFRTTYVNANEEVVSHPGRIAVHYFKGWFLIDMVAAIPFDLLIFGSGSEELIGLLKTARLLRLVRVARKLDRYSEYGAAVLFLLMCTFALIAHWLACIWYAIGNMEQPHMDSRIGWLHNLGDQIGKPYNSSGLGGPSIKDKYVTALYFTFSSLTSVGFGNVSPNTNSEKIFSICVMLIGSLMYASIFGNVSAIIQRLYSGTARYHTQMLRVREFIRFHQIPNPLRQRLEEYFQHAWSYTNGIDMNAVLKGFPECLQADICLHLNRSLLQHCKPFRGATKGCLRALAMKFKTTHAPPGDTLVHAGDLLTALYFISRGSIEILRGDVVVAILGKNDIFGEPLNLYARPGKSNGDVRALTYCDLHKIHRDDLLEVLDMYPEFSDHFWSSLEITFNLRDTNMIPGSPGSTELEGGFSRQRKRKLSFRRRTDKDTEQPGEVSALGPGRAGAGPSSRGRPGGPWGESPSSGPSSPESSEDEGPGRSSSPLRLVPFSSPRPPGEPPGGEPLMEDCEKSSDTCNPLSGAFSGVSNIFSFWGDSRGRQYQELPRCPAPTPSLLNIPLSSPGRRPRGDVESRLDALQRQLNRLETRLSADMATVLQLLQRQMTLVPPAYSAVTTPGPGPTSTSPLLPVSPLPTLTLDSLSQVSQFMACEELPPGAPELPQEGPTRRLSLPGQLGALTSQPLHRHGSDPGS
Procedure: The assay was conducted as follows with all reagents used at room temperature unless otherwise stated.
All compounds were acoustically dispensed in quadruplicate using a Labcyte Echo.
Calculation of results is performed using APC package within Genedata. For the routine normalization of well data with Neutral and Inhibitor control well groups as reference, GeneData Assay Analyzer uses the following equation to normalize the signal values to the desired signal range:
[formula] x is the measured raw signal value of a well is the median of the measured signal values for the Central Reference (Neutral) wells on a plate is the median of the measured signal values for the Scale Reference (Inhibitor) wells on a plate CR is the desired median normalized value for the Central Reference (Neutral) SR is the desired median normalized value for the Scale Reference (Inhibitor)
A short description of data set [5]: Human plasma protein binding (equilibrium dialysis). It counts as in vitro ADME. For orientation: In equilibrium dialysis free small molecules cross a membrane that holds back macromolecules.
Procedure: The automated equilibrium dialysis assay in human plasma uses the RED (Rapid Equilibrium Dialysis) Device and sample handling. The assay generally runs over two to three days including delivery of results. After dialysis for 18 hours, plasma and buffer samples are prepared for analysis by liquid chromatography and mass spectrometry. Samples are generally tested in singlicates and quantified by LC/MSMS by using a 7-point calibration curve in plasma. The compounds are pooled together in plasma pools up to 10 compounds. Three reference compounds are used in each run, Propranolol, Metoprolol and Warfarin. Warfarin is used as a control in each pool and Propranolol and Metoprolol are placed randomly in each run. An in-house Excel macro is used for preparation of files for the robot and the mass spectrometer and is also used for the calculations of fraction unbound (fu %) in plasma.
Data set [6] addresses recombinant human Estrogen Receptor alpha ligand binding domain (ER alpha-LBD (GST)) (Homo sapiens (Human), UniProt P03372). The data set can be described thus: ERα binding assay (LanthaScreen TR-FRET competition). In general terms: TR-FRET usually uses a lanthanide donor and a delayed reading to cut background.
Procedure: The ability of compounds to bind to isolated Estrogen Receptor Alpha Ligand binding domain (ER alpha—LBD (GST)) was assessed in competition assays using a LanthaScreen Time-Resolved Fluorescence Resonance Energy Transfer (TR-FRET) detection end-point. For the LanthaScreen TR-FRET endpoint, a suitable fluorophore (Fluormone ES2, ThermoFisher, Product code P2645) and recombinant human Estrogen Receptor alpha ligand binding domain, residues 307-554 (expressed and purified in-house) were used to measure compound binding. The assay principle is that ER alpha-LBD (GST) is added to a fluorescent ligand to form a receptor/fluorophore complex. A terbium-labelled anti-GST antibody (Product code PV3551) is used to indirectly label the receptor by binding to its GST tag, and competitive binding is detected by a test compound's ability to displace the fluorescent ligand, resulting in a loss of TR-FRET signal between the Tb-anti-GST antibody and the tracer. The assay was performed as follows with all reagent additions carried out using the Beckman Coulter BioRAPTR FRD microfluidic workstation: • 1. Acoustic dispense 120 nL of the test compound into a black low volume 384 well assay plates. • 2. Prepare 1× ER alpha-LBD/Tb-antiGST Ab in ES2 screening buffer and incubate for 15 minutes. • 3. […] Cover the assay plate to protect the reagents from light and evaporation, and incubate at room temperature for 4 hours. • 5. Excite at 337 nm and measure the fluorescent emission signal of each well at 490 nm and 520 nm using the BMG PheraSTAR.
TR-FRET dose response data obtained with each compound was exported into a suitable software package (such as Origin or Genedata) to perform curve fitting analysis. Competitive ER alpha binding was expressed as an IC50 value.
Setting [7] is: aqueous phosphate buffer, 25 °C, pH 7.4, aqueous buffer, thermodynamic from solid.

Estrogen Receptor (ERα) in MCF-7 cells, sequence (P03372 whole entry): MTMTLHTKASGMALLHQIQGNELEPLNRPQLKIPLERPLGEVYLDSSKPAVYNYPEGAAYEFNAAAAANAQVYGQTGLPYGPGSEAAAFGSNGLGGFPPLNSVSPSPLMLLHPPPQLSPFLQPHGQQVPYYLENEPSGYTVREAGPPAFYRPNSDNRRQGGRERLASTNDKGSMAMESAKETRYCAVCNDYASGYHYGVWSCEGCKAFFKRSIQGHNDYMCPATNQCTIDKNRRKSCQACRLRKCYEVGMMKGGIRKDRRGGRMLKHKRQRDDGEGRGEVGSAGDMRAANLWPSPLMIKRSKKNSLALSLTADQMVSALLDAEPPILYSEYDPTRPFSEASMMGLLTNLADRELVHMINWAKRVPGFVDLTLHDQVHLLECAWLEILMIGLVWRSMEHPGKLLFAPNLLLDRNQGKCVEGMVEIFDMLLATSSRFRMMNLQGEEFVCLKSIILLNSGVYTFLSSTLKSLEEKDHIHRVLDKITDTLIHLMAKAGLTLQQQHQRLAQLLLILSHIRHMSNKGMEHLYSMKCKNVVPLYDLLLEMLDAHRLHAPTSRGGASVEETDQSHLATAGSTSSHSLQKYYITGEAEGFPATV
recombinant human Estrogen Receptor alpha ligand binding domain (ER alpha-LBD (GST)), sequence (P03372 307-554): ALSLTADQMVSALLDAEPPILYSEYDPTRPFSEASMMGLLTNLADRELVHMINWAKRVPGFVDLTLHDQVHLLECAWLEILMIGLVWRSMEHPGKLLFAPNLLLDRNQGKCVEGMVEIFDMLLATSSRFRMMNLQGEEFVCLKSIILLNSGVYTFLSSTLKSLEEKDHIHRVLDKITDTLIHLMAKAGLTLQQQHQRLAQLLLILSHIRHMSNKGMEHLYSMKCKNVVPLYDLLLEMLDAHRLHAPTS

Consider `Cc1c(OCCN(C)CCCF)ncc(F)c1[C@@H]1c2[nH]c3ccccc3c2C[C@@H](C)N1C(C)CC(=O)O` (single isomer, unassigned) [Example 158], for which the IC50 was 1 nM in data set [1], > 40000 nM in data set [4] and 1.5 nM in data set [6]. The compound further yielded a logD in data set [2] of 1.8. The solubility at 24 h in data set [3] (setting [7]) was > 1000 µM. In addition, the “Human plasma protein binding (% free)” value in data set [5] was 21 % free.
With `Cc1c(OCCN(C)CCCF)ncc(F)c1[C@@H]1c2[nH]c3ccccc3c2C[C@@H](C)N1C(C)CC(=O)O` (single isomer, unassigned) [Example 159], the results for the IC50 in data set [1], in data set [4] and in data set [6] were 0.18 nM, > 40000 nM and 0.9 nM, respectively. Besides, in data set [2] (pH 7.4), the “LogD pH 7.4” value is listed as 1.7. Besides, in data set [3] (25° C.), the solubility at 24 h is >1000 µM. In addition, in data set [5], the “Human plasma protein binding (% free)” value was 13 % free.
Turning to `C[C@@H]1Cc2c([nH]c3ccccc23)[C@@H](c2cccc(OCCNCCCF)c2Cl)N1CC(F)(F)F` [Example 25, N-(2-(2-chloro-3-((1R,3R)-3-methyl-2-(2,2,2-trifluoroethyl)-2,3,4,9-tetrahydro-1H-pyrido[3,4-b]indol-1-yl)phenoxy)ethyl)-3-fluoropropan-1-amine], the results for the IC50 in data set [1], in data set [4] and in data set [6] were 0.25 nM, 5200 nM and 0.88 nM, respectively. In data set [2], the logD was 4.3. In data set [3] (setting [7]), this compound came in with a solubility at 24 h of 19 µM (≈ 9.46 µg/mL). In data set [5], the “Human plasma protein binding (% free)” value is recorded as 0.080 % free.
For `COc1ccc(OCCNCCCF)c(C)c1[C@@H]1c2[nH]c3ccccc3c2C[C@@H](C)N1CC(F)(F)F` [Example 26, 3-fluoro-N-(2-(4-methoxy-2-methyl-3-((1R,3R)-3-methyl-2-(2,2,2-trifluoroethyl)-2,3,4,9-tetrahydro-1H-pyrido[3,4-b]indol-1-yl)phenoxy)ethyl)propan-1-amine], the IC50 in data set [1] came out at 0.16 nM; in data set [4], 4100 nM; in data set [6], 0.85 nM. Also, the logD in data set [2] worked out at 4.6. The same compound registered a solubility at 24 h in data set [3] (setting [7]) of 8 µM (≈ 4.06 µg/mL). In addition, the “Human plasma protein binding (% free)” value in data set [5] was determined as 0.22 % free.
For the compound `COc1c(F)cc(OCCNCCCF)cc1[C@@H]1c2[nH]c3ccccc3c2C[C@@H](C)N1CC(F)(F)F` [Example 27, 3-fluoro-N-(2-(3-fluoro-4-methoxy-5-((1R,3R)-3-methyl-2-(2,2,2-trifluoroethyl)-2,3,4,9-tetrahydro-1H-pyrido[3,4-b]indol-1-yl)phenoxy)ethyl)propan-1-amine], the IC50 in data set [1] was 1.6 nM; in data set [4], 4800 nM; in data set [6] it was 2.7 nM. Also, the logD in data set [2] is 4.2. Also, the solubility at 24 h in data set [3] (setting [7]) stood at 6 µM (≈ 3.07 µg/mL). For the same compound, the “Human plasma protein binding (% free)” value in data set [5] stood at 0.42 % free.
With `COc1c(F)cc(OCCNCCCF)c(F)c1[C@@H]1c2[nH]c3ccccc3c2C[C@@H](C)N1CC(F)(F)F` [Example 29, N-(2-(2,5-difluoro-4-methoxy-3-((1R,3R)-3-methyl-2-(2,2,2-trifluoroethyl)-2,3,4,9-tetrahydro-1H-pyrido[3,4-b]indol-1-yl)phenoxy)ethyl)-3-fluoropropan-1-amine], the figures for the IC50 in data set [1], in data set [4] and in data set [6] were 0.44 nM, 5100 nM and 2 nM, respectively. Moreover, the logD in data set [2] is > 3.2. For the same compound, the solubility at 24 h in data set [3] (setting [7]) worked out at 58 µM (≈ 30.7 µg/mL). Further, the “Human plasma protein binding (% free)” value in data set [5] is <3.2 % free.
In the case of `C[C@@H]1Cc2c([nH]c3ccccc23)[C@@H](c2cc(OCCNCCCF)cc(F)c2F)N1CC(F)(F)F` [Example 30, N-(2-(3,4-difluoro-5-((1R,3R)-3-methyl-2-(2,2,2-trifluoroethyl)-2,3,4,9-tetrahydro-1H-pyrido[3,4-b]indol-1-yl)phenoxy)ethyl)-3-fluoropropan-1-amine], the IC50 was 0.32 nM in data set [1], 2300 nM in data set [4] and 2.1 nM in data set [6]. In data set [2], this compound returned a logD of 4.1. The solubility at 24 h in data set [3] (setting [7]) came out at 39 µM (≈ 19.5 µg/mL). The “Human plasma protein binding (% free)” value in data set [5] is reported as 0.72 % free.
For `C[C@@H]1Cc2c([nH]c3ccccc23)[C@@H](c2cc(F)cc(OCCNCCCF)c2F)N1CC(F)(F)F` [Example 31, N-(2-(2,5-difluoro-3-((1R,3R)-3-methyl-2-(2,2,2-trifluoroethyl)-2,3,4,9-tetrahydro-1H-pyrido[3,4-b]indol-1-yl)phenoxy)ethyl)-3-fluoropropan-1-amine], the IC50 in data set [1] was found to be 7.2 nM; in data set [4], 11000 nM; in data set [6], 5.4 nM. The same compound showed a logD in data set [2] of 4.1. This compound also yielded a solubility at 24 h in data set [3] (setting [7]) of 40 µM (≈ 20 µg/mL). For the same compound, the “Human plasma protein binding (% free)” value in data set [5] was 0.41 % free.
As to `C[C@@H]1Cc2c([nH]c3ccccc23)[C@@H](c2c(F)c(F)cc(OCCNCCCF)c2F)N1CC(F)(F)F` [Example 32, 3-fluoro-N-(2-(2,4,5-trifluoro-3-((1R,3R)-3-methyl-2-(2,2,2-trifluoroethyl)-2,3,4,9-tetrahydro-1H-pyrido[3,4-b]indol-1-yl)phenoxy)ethyl)propan-1-amine], the IC50 in data set [1] worked out at 0.38 nM; in data set [4], 5800 nM; in data set [6], 2.7 nM. In data set [2], this compound registered a logD of 4.1. The same compound registered a solubility at 24 h in data set [3] (setting [7]) of 55 µM (≈ 28.5 µg/mL). In data set [5], the “Human plasma protein binding (% free)” value is reported as 0.52 % free.
Take `C[C@@H]1Cc2c([nH]c3ccccc23)[C@@H](c2cccc(OCCNCCCF)n2)N1CC(F)(F)F` [Example 34, 3-fluoro-N-(2-((6-((1S,3R)-3-methyl-2-(2,2,2-trifluoroethyl)-2,3,4,9-tetrahydro-1H-pyrido[3,4-b]indol-1-yl)pyridin-2-yl)oxy)ethyl)propan-1-amine]: the “% downregulation (in brackets)” value in data set [1] (maximum downregulation) is given as “— (41%)”. In addition, the logD in data set [2] is 3.7. The compound further gave a solubility at 24 h in data set [3] (setting [7]) of 151 µM (≈ 70.1 µg/mL). Further, the half-inhibitory concentration (IC50) was 3400 nM in data set [4] and 190 nM in data set [6]. In data set [5], the “Human plasma protein binding (% free)” value came out at 2.2 % free.
On to `COc1ncc(OCCNCCCF)cc1[C@@H]1c2[nH]c3ccccc3c2C[C@@H](C)N1CC(F)(F)F` [Example 36, 3-fluoro-N-(2-((6-methoxy-5-((1R,3R)-3-methyl-2-(2,2,2-trifluoroethyl)-2,3,4,9-tetrahydro-1H-pyrido[3,4-b]indol-1-yl)pyridin-3-yl)oxy)ethyl)propan-1-amine], for which the figures for the half-inhibitory concentration (IC50) in data set [1], in data set [4] and in data set [6] were 0.35 nM, 8700 nM and 2.6 nM, respectively. The logD in data set [2] was 3.5. Further, the solubility at 24 h in data set [3] (setting [7]) stood at 183 µM (≈ 90.5 µg/mL). Besides, the “Human plasma protein binding (% free)” value in data set [5] is recorded as 2 % free.
With `Cc1ncc(OCCNCCCF)cc1[C@@H]1c2[nH]c3ccccc3c2C[C@@H](C)N1CC(F)(F)F` [Example 37, 3-fluoro-N-(2-((6-methyl-5-((1R,3R)-3-methyl-2-(2,2,2-trifluoroethyl)-2,3,4,9-tetrahydro-1H-pyrido[3,4-b]indol-1-yl)pyridin-3-yl)oxy)ethyl)propan-1-amine], the IC50 in data set [1] turned out to be 35 nM; in data set [4] it was 3500 nM; in data set [6] it was 12 nM. The logD in data set [2] came to 3.6. The solubility at 24 h in data set [3] (setting [7]) was 434 µM (≈ 208 µg/mL). The “Human plasma protein binding (% free)” value in data set [5] came out at 2.3 % free.

The term IC50 denotes the midpoint of a concentration-inhibition curve. For orientation: logD means lipophilicity at a set pH, counting ionised and neutral species. The term solubility denotes the dissolved amount per volume that the medium holds. Low values mean little dissolved substance, high ones much dissolved substance.
